Experimental data from patent US20230321101A1, “METHODS AND USES OF HALOFUGINONE” (The Regents of the University of California, priority 2020, published 2023).
pEC50, pIC50: −log10 of the molar value. Entries after “also recorded” stand apart in the source; their conditions may differ. Like-named read-outs stand apart in the source and are kept apart here.

Key:
[1] = tested on: DENV-2 (Dengue); assay: DENV-2 antiviral immunofluorescence assay in Huh7 cells; type: cell-based
Method: (§1) Experimental Procedure. The antiviral activity of 8 dilutions of each compound was explored by adding the drug to the assay cells 2 h after infection with the different viruses. Virus and compounds were left on the cells for the entire duration of the experiment (28 h for Zika virus and 24 h for all other viruses). The cytotoxicity of the same range of concentrations of compounds was determined by LDH release assay in the same cell lines.
(§2) Cell plating. Cells were detached and counted following SOP-RA 003 and SOP-RA 004. Count was recorded in the Cell Count Logbook, Volume 1. For each virus four plates were seeded, two for the antiviral assay and two for the cytotoxicity assay. Cells were seeded in 100 μl/well of complete media at the following densities: • Huh7: 8,000 cells/well (Dengue) • SH-SY5Y: 10,000 cells/wells (Zika) • HeLa Tzmbl: 8,000 cells/well (HIV)
(§3) Compounds dilutions. The 22.1 mM stocks were further diluted to 1 mM in DMSO by adding 211 μl of DMSO to 10 μl of compound. Three serial dilutions were prepared in different media for different viruses/cells. For each dilution, drugs were prepared at twice the final concentration in 50 μl volume, because they are diluted to the final concentration by an equal volume of virus or media.
(§4) Infection. Cells were infected in 50 μl of supplemented media/well at the following multiplicity of infection (MOI): • DENV-2, MOI 1 • ZIKV, MOI 5 • HIV, MOI 0.5
(§5) After removing culture media from cells, 50 μl of virus dilution were added to all wells except Column 11 (uninfected control), where the same volume of supplemented media was added. […]
(§6) Infectivity readout. […] The primary antibodies were detected with an Alexa-488 conjugate secondary antibody (Life Technologies, A11001), and nuclei were stained with Hoechst. Images were acquired on a CellInsight CX5 high content platform (Thermo Scientific) using a 4× objective, and percentage infection calculated using CellInsight CX5 software (infected cells/total cells×100).
(§7) Determination of % Inhibition—IF assay. Normalized percentages of inhibition were calculated using the following formula: […]

[2] = tested on: HIV-1; assay: HIV-1 antiviral immunofluorescence assay in HeLa Tzmbl cells; type: cell-based; settings: HeLa Tzmbl
Method: as §1, §2, §3, §4, §5, §6, §7

[3] = tested on: ZIKV (Zika virus); assay: ZIKV antiviral immunofluorescence assay in SH-SY5Y cells; type: cell-based
Method: as §1, §2, §3, §4, §5, §6, §7

[4] = tested on: authentic SARS-CoV-2; assay: microbe, parasite or virus in culture; type: cell-based
[5] = tested on: Vero E6 cells; assay: Cell number of Vero E6 cells treated for 24 h; type: cell-based, African green monkey; settings: Vero E6, 24 h
Method: FIG. 32A and FIG. 32B. […] A-B, Measurement of authentic SARS-CoV-2 infection and cell number in Vero E6 cells treated with (A) halofuginone (HF) or (B) the 2R,3S-(+) enantiomer for 24 h. Data shown as mean±S.D.

[6] = tested on: recombinant SARS-CoV-2 spike RBD protein binding to Hep3B cells; settings: for decrease of SARS-CoV-2 RBD binding compared to excipient control (DMSO): 18 h; for effect on halofuginone-induced reduction in spike protein binding: co-incubated with halofuginone
[7] = tested on: cell surface heparan sulfate of Hep3B cells; assay: Heparan sulfate presentation by anti-HS mAb 10E4 staining of Hep3B cells; type: cell-based, human; settings: for effect on halofuginone-induced reduction in heparan sulfate production (10E4 binding): co-incubated with halofuginone
[8] = ProSA at 50 μM, halofuginone 500 nM
[9] = Severe acute respiratory syndrome coronavirus 2, Vero C1008, read-out: IC50 of SARS-CoV-2 infection

Row | Structure (SMILES) | effect on authentic SARS-CoV-2 infection ([4]; Vero E6) | effect on spike (RBD) protein binding [6] | effect on heparan sulfate presentation (10E4 binding) [7] | also measured
1 | CC(C)(C)OC(=O)N1CCCC(O)[C@H]1CC(=O)Cn1cnc2cc(Br)c(Cl)cc2c1=O (stereo partly shown) | – | – | – | antiviral activity against DENV-2 ([1]; Huh7): did not display antiviral activity; antiviral activity against HIV-1 [2]: did not display antiviral activity; antiviral activity against ZIKV [3]: did not display antiviral activity
2 | O=C(CC1NCCCC1O)Cn1cnc2cc(Br)c(Cl)cc2c1=O (single isomer, unassigned) [2S,3R-(−)enantiomer] | No inhibition was observed | – | – | –
3 | O=C(C[C@H]1NCCC[C@@H]1O)Cn1cnc2cc(Br)c(Cl)cc2c1=O [2R,3S-(+) halofuginone] | inhibit SARS-CoV-2 infection | inhibited HS production and authentic SARS-CoV-2 spike RBD protein binding | inhibited HS production | cell proliferation (cell number) [5]: inhibit SARS-CoV-2 infection and cell proliferation; pIC50 ([4]; Vero E6, read-out: IC50 of SARS-CoV-2 infectivity, enantiomer comparison): 7.92
4 | Nc1ncn([C@@H]2O[C@H](CO)[C@@H](O)[C@H]2O)c(=O)n1 [5-Azacytidine] | – | – | reduced heparan sulfate presentation | –
5 | Nc1ncn([C@H]2C[C@H](O)[C@@H](CO)O2)c(=O)n1 [5-Azadeoxycitidine] | – | – | reduced heparan sulfate presentation | –
6 | Nc1ncnc2c1c(I)cn2[C@@H]1O[C@H](CO)[C@@H](O)[C@H]1O [5-Iodotubercidin] | – | – | reduced heparan sulfate presentation | –
7 | CNC(=O)Nc1ccc2c(c1)CC[C@@]21OC(=O)N(CC(=O)N(Cc2ccc(F)cc2)[C@@H](C)C(F)(F)F)C1=O [A-485] | – | – | reduced heparan sulfate presentation | –
8 | O=C(/C=C/c1cccc(S(=O)(=O)Nc2ccccc2)c1)NO [Belinostat] | – | reduced spike protein by more than two-fold | increased 10E4 staining | decrease of SARS-CoV-2 RBD binding compared to excipient control (DMSO) ([6]; 5 μM): ~50%
9 | c1nn(C2CCOCC2)cc1Nc1ncc2nnn(-c3ccc4cn[nH]c4c3)c2n1 [GCN2-IN-1] | – | – | reduced in heparan sulfate production; also recorded: reduced 10E4 and spike RBD binding almost to the same extent as halofuginone | effect on halofuginone-induced reduction in spike protein binding [6]: reversed the halofuginone induced reduction in 10E4 or spike protein binding; effect on halofuginone-induced reduction in heparan sulfate production (10E4 binding) [7]: reversed the halofuginone induced reduction in 10E4 or spike protein binding
10 | Cn1cc(-c2ccc3c(c2)CCN3C(=O)Cc2cccc(C(F)(F)F)c2)c2c(N)ncnc21 [GSK2606414] | – | Neither PERKi nor ISRIB affected 10E4 or spike RBD binding | Neither PERKi nor ISRIB affected 10E4 or spike RBD binding | effect on halofuginone-induced reduction in spike protein binding [6]: reversed the halofuginone induced reduction in 10E4 or spike protein binding; effect on halofuginone-induced reduction in spike protein binding ([6]; listed as PERKi): unable to attenuate the halofuginone-induced reduction in heparan sulfate production and Spike protein binding; effect on halofuginone-induced reduction in heparan sulfate production (10E4 binding) [7]: reversed the halofuginone induced reduction in 10E4 or spike protein binding; effect on halofuginone-induced reduction in heparan sulfate production (10E4 binding) ([7]; listed as PERKi): unable to attenuate the halofuginone-induced reduction in heparan sulfate production
11 | O=C(COc1ccc(Cl)cc1)NC1CCC(NC(=O)COc2ccc(Cl)cc2)CC1 (stereo not shown) [ISRIB] | – | Neither PERKi nor ISRIB affected 10E4 or spike RBD binding | Neither PERKi nor ISRIB affected 10E4 or spike RBD binding | effect on halofuginone-induced reduction in heparan sulfate production (10E4 binding) [7]: unable to attenuate the halofuginone-induced reduction in heparan sulfate production; also recorded: nor ISRIB reversed the halofuginone induced reduction in 10E4 or spike protein binding
12 | CC(C)(C)OC(=O)N1CCC[C@H](O)[C@H]1CC(=O)Cn1cnc2cc(Br)c(Cl)cc2c1=O [MAZ1310] | did not have any activity | had no effect | had no effect | –
13 | Nc1ncnc2c1ncn2[C@@H]1O[C@H](COS(=O)(=O)NC(=O)[C@@H]2CCCN2)[C@@H](O)[C@H]1O [ProSA, prolyl-sulfamoyl adenosine] | inhibited authentic SARS-CoV-2 infection of Vero E6 cells; also recorded: inhibit infection by authentic SARS-CoV-2 when provided at higher doses | – | – | effect on Spike protein binding ([6]; 1 μM): unable to inhibit heparan sulfate inhibition and Spike protein binding; effect on spike RBD binding [6, 8]: prevented HS presentation and spike RBD binding to similar levels as treatment with halofuginone; effect on heparan sulfate presentation ([7]; 1 μM): unable to inhibit heparan sulfate inhibition and Spike protein binding; effect on HS presentation (mAb 10E4 stain) [7, 8]: prevented HS presentation and spike RBD binding to similar levels as treatment with halofuginone
14 | CCC(CC)COC(=O)[C@H](C)N[P@](=O)(OC[C@H]1O[C@@](C#N)(c2ccc3c(N)ncnn23)[C@H](O)[C@@H]1O)Oc1ccccc1 [Remdesivir] | – | – | – | pIC50 [4, 9]: 5.10
15 | C/C=C1\NC(=O)[C@H]2CSSCC/C=C/[C@H](CC(=O)N[C@H](C(C)C)C(=O)N2)OC(=O)[C@H](C(C)C)NC1=O [Romidepsin] | – | – | – | decrease of SARS-CoV-2 RBD binding compared to excipient control (DMSO) ([6]; 1 μM): ~50%
16 | Nc1ncnc2c1ncn2C1OC(COS(=O)(=O)NC(=O)[C@@H](N)CO)[C@@H](O)[C@H]1O (stereo partly shown) [SerSA, seryl-sulfamoyl adenosine] | Neither of these AARS inhibitors were able to significantly attenuate viral replication | Neither of these AARS inhibitors were able to significantly attenuate | – | –
17 | COc1cc2c(NC3CCN(C(C)C)CC3)nc(C3CCCCC3)nc2cc1OCCCN1CCCC1 [UNC0638] | – | – | increased the total amount of heparan sulfate | –
18 | C[C@@H]1C[C@H](C)C[C@H](C)[C@@H](O)CC(=O)O[C@H]([C@@H]2CCC[C@H]2C(=O)O)C/C=C/C=C(/C#N)[C@H](O)[C@@H](C)C1 [borrelidin] | Neither of these AARS inhibitors were able to significantly attenuate viral replication | Neither of these AARS inhibitors were able to significantly attenuate | Inhibits HS production | effect on spike (RBD) protein binding ([6]; listed as Borrelidin): not SARS-CoV-2 Spike RBD protein binding
19 | CCN(CC)CCCC(C)Nc1ccnc2cc(Cl)ccc12 (stereo not shown) [chloroquine] | – | – | – | pIC50 [4, 9]: 5.72
20 | O=c1c2cc(Cl)c(Br)cc2ncn1C[C@H](O)C[C@H]1NCCC[C@@H]1O [halofuginol] | inhibited authentic SARS-CoV-2 infection of Vero E6 cells; also recorded: inhibit infection by authentic SARS-CoV-2 when provided at higher doses | significantly decreased 10E4 and spike RBD binding | significantly decreased 10E4 and spike RBD binding | inhibition of DENV-2 ([1]; Huh7, highest concentration tested (1000 nM)): ~60%; pEC50 ([2]; MOI 0.5, drug added 2 h after infection, 24 h, read-out: EC50 HIV-1): 6.46; antiviral activity against ZIKV [3]: antiviral activity only against HIV-1
